Publication PMC6680510, “Benzotriazine Di-Oxide Prodrugs for Exploiting Hypoxia and Low Extracellular pH in Tumors” (Molecules, 2019)
“And” between values parts separate entries of the source, which are not always exact repeats. Identical values can stand only once. Like-named read-outs stand apart in the source and are kept apart here.

Experiments:
[1] = test system: SiHa cells; test: IC50 assay (inhibition of proliferation, 4 h exposure, SRB); details: SiHa; for IC50: Homo sapiens, 4 h
Procedure: (§1) Cells were seeded in 96-well plates (SiHa or FaDu 1500 cells/well, UT-SCC-74B 800 cells/well) in 100 μL. After incubation for 2 h, the drugs were added in 50 μL of the same titrated medium at 3× the final concentration to duplicate the wells. After a further 4 h the plates were checked for drug precipitation using a phase contrast microscope, then drugs were removed by aspirating and washing with the standard (pH 7.4) medium, then aspirating again and adding 150 μL of the medium. Cultures were then grown for 5 days before staining with sulphorhodamine B and measuring absorbance, with the estimation of IC50 values using 4-parameter logistic regression, as previously carried out.
The medium and plasticware was equilibrated in the chamber for 3 days prior to use. In the anoxia experiments, FaDu cells were plated in poly-L-lysine coated plates (Corning Cat # 356461) to improve attachment.
Cells were subsequently grown under standard cell culture conditions (oxia, pHe 7.4) for 5 days before staining with sulforhodamine B (SRB). […] (B) SN30000 (2). (C) BTO acid 4a. Values are means and errors are ranges for duplicate cultures in a single experiment. Fitted curves are 4-parameter logistic regressions. PCR = pH cytotoxicity ratio. ACR = anoxia cytotoxicity ratio. TMR = tumor microenvironment ratio.

[2] = test system: FaDu cells; test: as above; type: cell-based; details: for IC50: Homo sapiens, 4 h
[3] = Solubility in AlphaMEM + 5% FBS, pH 7.4; details: culture medium (AlphaMEM + 5% FBS), pH 7.4, plasma or biological fluid, kinetic from dmso stock
[4] = test system: UT-SCC-74B cells; test: IC50 assay (inhibition of proliferation, 4 h exposure, SRB); type: cell-based; details: for IC50: Homo sapiens, 4 h; for IC50 / PCR Anoxic (IC50 at pHe 7.4/IC50 at pHe 6.5) / PCR oxic (IC50 at pHe 7.4/IC50 at pHe 6.5): UT-SCC-74B
Procedure: as §1
The medium and plasticware was equilibrated in the chamber for 3 days prior to use. In the anoxia experiments, FaDu cells were plated in poly-L-lysine coated plates (Corning Cat # 356461) to improve attachment. […]
Footnotes: a Number of experiments. b Anoxic cytotoxicity ratio = oxic IC50/anoxic IC50. c pH
cytotoxicity ratio = IC50 at pHe 7.4/ IC50 at pHe 6.5. d Overall ratio = oxic IC50 pHe 7.4 / anoxic IC50 pHe
6.5. Values are means and errors are SEM. For ratios, the errors are root mean square SEM. […]

[5] = test system: SiHa cells; test: IC50 assay modified for chronic hypoxia (oxia, hypoxia, anoxia); type: cell-based; details: for IC50: Homo sapiens
Procedure: There are relatively few viable cells in tumors at O2 concentrations as low as in the above anoxic experiments. In addition, extensive changes in gene expression occur under chronic exposure to intermediate O2 concentrations (chronic hypoxia), including the expression of proteins that regulate pHi. […] Therefore, oxic and anoxic exposures were also tested in these same experiments. The 24 h adaptation to hypoxia had little effect on the subsequent growth of the cultures at either pHe value (Figure S6).
To minimize problems with poor cell attachment under chronic hypoxia, the drugs were added from a 3-fold dilution series made in a separate plate, rather than by serial dilution in the plates containing the cells. In addition, the drugs were removed after the 4 h exposure by centrifuging the plates (200g × 5 min) prior to each aspiration. The same modifications were used for the oxic drug exposures in these experiments.

[6] = read-out: Anoxic IC50, SiHa, pHe 6.5, 4 h, anoxic
[7] = read-out: Anoxic IC50, SiHa, pHe 7.4, 4 h, anoxic
[8] = read-out: Oxic IC50, SiHa, pHe 6.5, 4 h, oxic
[9] = read-out: Oxic IC50, SiHa, pHe 7.4, 4 h, oxic
[10] = pHe 6.5, 4 h, anoxic, read-out: Anoxic IC50
[11] = pHe 6.5, 4 h, oxic, read-out: Oxic IC50
[12] = pHe 7.4, 4 h, anoxic, read-out: Anoxic IC50
[13] = pHe 7.4, 4 h, oxic, read-out: Oxic IC50

Compound Cc1ccc2c(c1)[n+]([O-])nc(CCC(=O)O)[n+]2[O-] [Compound 5a, 3-(2-Carboxyethyl)-7-methylbenzo[e][1,2,4]triazine 1,4-Dioxide] has an IC50 [1, 6] of 225 ± 38 µM, an IC50 [1, 7] of 542 ± 113 µM and an IC50 [1, 8] of 449 ± 188 µM. For the same compound, the IC50 [1, 9] was greater than 3000 µM, the “TMR (overall TME ratio = oxic IC50 pHe 7.4/anoxic IC50 pHe 6.5)” value [1] was greater than 13 and the “PCR Anoxic (IC50 at pHe 7.4/IC50 at pHe 6.5)” value (from here on “PCR Anoxic”) [1] was 2.41 ± 0.64. The “PCR oxic (IC50 at pHe 7.4/IC50 at pHe 6.5)” value (from here on “PCR oxic”) ([1]; oxic) was greater than 6.7, the “ACR (anoxic cytotoxicity ratio = oxic IC50/anoxic IC50)” value ([1]; pHe 6.5) was 1.99 ± 0.90 and the “ACR (anoxic cytotoxicity ratio = oxic IC50/anoxic IC50)” value ([1]; pHe 7.4) was greater than 5.5. For the same compound, the “TMR (oxic IC50 pHe 7.4/anoxic IC50 pHe 6.5)” value [2] was 13.9 ± 1.7, the IC50 [2, 10] was 203 ± 18 µM and the IC50 [2, 11] was 1100 ± 110 µM. For the same compound, the IC50 [2, 12] was 924 ± 64 µM, the IC50 [2, 13] was 2770 ± 690 µM and the “PCR Anoxic” value ([2]; anoxic) was 4.29 ± 0.55. For the same compound, the “PCR oxic” value ([2]; oxic) was 2.55 ± 0.32, the “ACR (oxic IC50/anoxic IC50)” value ([2]; pHe 6.5) was 5.49 ± 0.26 and the “ACR (oxic IC50/anoxic IC50)” value ([2]; pHe 7.4) was 3.00 ± 0.22. The melting point was 181 to 183 °C (dec.) and the solubility [3] was greater than 980 µM.
CCOC(=O)CCCNc1n[n+]([O-])c2cc(C)ccc2[n+]1[O-] [Compound 12b, 3-((4-Ethoxy-4-oxobutyl)amino)-7-methylbenzo[e][1,2,4]triazine 1,4-Dioxide] showed a melting point of 191 to 192 °C and a solubility [3] of 160 µM.
With Cc1ccc2c(c1)[n+]([O-])nc(NCCCC(=O)O)[n+]2[O-] (hydrate or solvate) [Compound 12a, 3-((3-Carboxypropyl)amino)-7-methylbenzo[e][1,2,4]triazine 1,4-Dioxide] the melting point was 185 to 188 °C.
Cc1ccc2c(c1)[n+]([O-])nc(NCCCC(=O)O)[n+]2[O-] [Compound 12a, 3-((3-Carboxypropyl)amino)-7-methylbenzo[e][1,2,4]triazine 1,4-Dioxide] showed an IC50 [1, 6] of 234 ± 17 µM, an IC50 [1, 7] greater than 300 µM and an IC50 [1, 8] greater than 300 µM. The IC50 [1, 9] was greater than 300 µM, the “TMR (overall TME ratio = oxic IC50 pHe 7.4/anoxic IC50 pHe 6.5)” value [1] was greater than 1 and the “PCR Anoxic” value [1] was greater than 1. For the same compound, the “ACR (anoxic cytotoxicity ratio = oxic IC50/anoxic IC50)” value ([1]; pHe 6.5) was greater than 1, the “TMR (oxic IC50 pHe 7.4/anoxic IC50 pHe 6.5)” value [2] was greater than 1 and the IC50 [2, 10] was 271 ± 53 µM. For the same compound, the IC50 [2, 11] was greater than 300 µM, the IC50 [2, 12] was greater than 300 µM and the IC50 [2, 13] was greater than 300 µM. For the same compound, the “PCR Anoxic” value ([2]; anoxic) was greater than 1, the “ACR (oxic IC50/anoxic IC50)” value ([2]; pHe 6.5) was greater than 1 and the solubility [3] was greater than 890 µM.
Compound O=C(O)CCCc1ccc(N(CCCl)CCCl)cc1 [Compound 1, chlorambucil] has an IC50 [1, 6] of 3.78 ± 1.51 µM, an IC50 [1, 7] of 13.6 ± 1.1 µM and an IC50 [1, 8] of 1.58 ± 0.27 µM. It also gave an IC50 [1, 9] of 12.7 ± 1.2 µM, an IC50 [2, 10] of 2.26 ± 0.37 µM and an IC50 [2, 11] of 3.19 ± 0.78 µM. The IC50 [2, 12] was 13.1 ± 8.7 µM, the IC50 [2, 13] was 15 ± 1.6 µM and the “ACR (oxic IC50/anoxic IC50)” value [4] was 1.26 ± 0.20 and 0.94 ±0.21. For the same compound, the IC50 ([4]; pHe 6.5, 4 h, 20% O2, read-out: Oxic IC50) was 0.8 ± 0.17 µM, the IC50 ([4]; pHe 6.5, 4 h, <0.01% O2, read-out: Anoxic IC50) was 0.85 ± 0.06 µM and the IC50 ([4]; pHe 7.4, 4 h, 20% O2, read-out: Oxic IC50) was 6.34 ± 0.88 µM. For the same compound, the IC50 ([4]; pHe 7.4, 4 h, <0.01% O2, read-out: Anoxic IC50) was 5.05 ± 0.38 µM, the “PCR Anoxic” value ([4]; listed as CHL) was 5.9 and the “PCR Anoxic” value ([4]; listed as CHL (1)) was 5.94 ± 0.61. For the same compound, the “PCR oxic” value ([4]; listed as CHL) was 7.9, the “PCR oxic” value ([4]; listed as CHL (1)) was 7.93 ± 2.01 and the “PCR (IC50 for pHe 7.4/IC50 for pHe 6.5)” value ([5]; 0.2% O2) was 9.9 ± 2.8. For the same compound, the “PCR (IC50 for pHe 7.4/IC50 for pHe 6.5)” value ([5]; 20% O2) was 6.5 ± 2.0, the “PCR (IC50 for pHe 7.4/IC50 for pHe 6.5)” value ([5]; <0.01% O2) was 7.40 ± 1.64 and the IC50 ([5]; 0.2% O2 (24 h before and during 4 h exposure), pHe 6.5) was 1.75 ± 0.44 µM. It also gave an IC50 ([5]; 0.2% O2 (24 h before and during 4 h exposure), pHe 7.4) of 17.3 ± 2.53 µM, an IC50 ([5]; 4 h, 20% O2, pHe 6.5, 4 h) of 1.84 ± 0.48 µM and an IC50 ([5]; 4 h, 20% O2, pHe 7.4, 4 h) of 12 ± 2 µM. For the same compound, the IC50 ([5]; 4 h, <0.01% O2, pHe 6.5, 4 h) was 1.49 ± 0.18 µM, the IC50 ([5]; 4 h, <0.01% O2, pHe 7.4, 4 h) was 11 ± 2.1 µM and the “ACR (IC50 for 20% O2/IC50 for <0.01% O2)” value ([5]; pHe 6.5) was 1.23 ± 0.34. The “HCR (IC50 for 20% O2/IC50 for 0.2% O2)” value ([5]; pHe 6.5) was 1.05 ± 0.38, the “ACR (IC50 for 20% O2/IC50 for <0.01% O2)” value ([5]; pHe 7.4) was 1.09 ± 0.27 and the “HCR (IC50 for 20% O2/IC50 for 0.2% O2)” value ([5]; pHe 7.4) was 0.69 ± 0.15.
